Key:
Assay in all cases: relative viability (nuclei count vs DMSO), 5 days (fraction); higher = more cells survive
[1] = compound: CC1=CC(=C(N1C2=CC=C(C=C2)Cl)C)C(=O)CN3CCCCC3 [IU1-47]
Summary of the method: (§1)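 Nuclei counted with MetaXpress define viability as the ratio of treated to vehicle wells, given as a median across plates. The lung cancer cell lines were in 1536-well plates, pinned with five √10-spaced library-drug doses and imaged at 4× after 5 days and Hoechst staining. Plates passed with control CV below 25% and at least one doubling.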

[2] = compound: Cc1nc(C(=O)NCC(=O)O)c(O)c2ccc(Oc3ccccc3)cc12 [FG-4592]
Summary of the method: as §1

[3] = compound: CC1=CC(=C(N1C2=CC=C(C=C2)Cl)C)C(=O)CN3CCCCC3 [IU1-47] + Nc1ncn([C@H]2C[C@H](O)[C@@H](CO)O2)c(=O)n1 [Decitabine] (partner 2 µM)
Summary of the method: (§2)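 Five library-drug doses in √10 steps were combined with a fixed anchor-drug dose, or a single drug was given alone, by pin tool to lung cancer cell lines in 1536-well plates the day after seeding. Nuclei were stained and counted after 5 days. Relative viability is the nuclei count in treated wells over that in vehicle wells, taken as the median of duplicate plates.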

[4] = compound: Cc1nc(C(=O)NCC(=O)O)c(O)c2ccc(Oc3ccccc3)cc12 [FG-4592] + C[C@]1(O)C[C@@H](c2nc(-c3ccc4ccc(-c5ccccc5)nc4c3)c3c(N)nccn32)C1 [Linsitinib] (partner 1 µM)
Summary of the method: as §2

UMC-11
relative viability ([1]; 0.08 µM): 1.01 | relative viability ([1]; 0.253 µM): 0.961 | relative viability ([1]; 0.8 µM): 1.01 | relative viability ([1]; 2.53 µM): 0.991 | relative viability ([1]; 8 µM): 0.922 | relative viability ([2]; 0.08 µM): 0.952 | relative viability ([2]; 0.253 µM): 0.928 | relative viability ([2]; 0.8 µM): 0.806 | relative viability ([2]; 2.53 µM): 1.07 | relative viability ([2]; 8 µM): 0.804 | relative viability ([3]; first compound 0.08 µM): 0.664 | relative viability ([3]; first compound 0.253 µM): 0.622 | relative viability ([3]; first compound 0.8 µM): 0.571 | relative viability ([3]; first compound 2.53 µM): 0.581 | relative viability ([3]; first compound 8 µM): 0.717 | relative viability ([4]; first compound 0.08 µM): 0.974 | relative viability ([4]; first compound 0.253 µM): 0.93 | relative viability ([4]; first compound 0.8 µM): 0.933 | relative viability ([4]; first compound 2.53 µM): 1.06 | relative viability ([4]; first compound 8 µM): 0.87

Source: the supplement of paper PMC10307832
